# Patent publication US11945822B2, “Pyrazolo-triazine and/or pyrazolo-pxrimidine derivatives as selective inhibitor of cyclin dependent kinase” (QURIENT CO., LTD., priority 2018, dated 2024)
# Legend:
# [1] = target: T1, CDK1/Cyclin B (Homo sapiens, UniProt P06493); assay: Enzymatic assay for CDK1 (FRET based LANCE Ultra kinase assay); format: biochemical; details: read-out: CDK1 enzymatic activity (IC50 range)
# T1 construct: purchased Invitrogen PR4768C
# Procedure: (§1) Enzymatic Binding Assay Protocol for CDK1, CDK2, CDK5 and CDK7
# (§2) Inhibition activity of the respective compound on CDK kinase under Km value of ATP was tested in FRET based The LANCE® Ultra kinase assay (Perkin Elmer), which uses a ULight™-labeled peptide substrate and an appropriate Europium-labeled anti-phospho-antibody. Test compounds were made with DMSO solutions, and then 4-fold serial dilutions for 8 doses were prepared using automated liquid handler (POD810, LABCYTE) and 80 nL/well of diluted compound solutions were added into the 384-well plates (Greiner, Cat #784075). And then 68 nM of ULight-MBP peptide (Perkin Elmer, Cat #TRF0109-M) and 5 ul/well of ATP (Sigma, Cat #A7699) were added to the plate. After 1 min centrifugation at 1000 rpm, Purified CDKs/Cyclin complex were added following concentrations respectively. 24 uM for CDK1/Cyclin B (Invitrogen, Cat #PR4768C), 22 uM for CDK2/Cyclin A (Invitrogen, Cat #PV6290), 10 uM for CDK5/p25 (Invitrogen, Cat #PR8543B) and […] for CDK7/Cyclin H/MNAT1 (Invitrogen, Cat #PR6749B) were added to the each corresponding plate for CDK1, CDK2, CDK5 and CDK7. Incubate at 23° C. for 60 min and then Eu-labeled anti-phospho-Myelin Basic Protein (PE, Cat #TRF0201-M) and EDTA (Invitrogen, Cat #15575038) mixture in Lance Detection Buffer (Perkin Elmer, Cat #CR97100) was added in each well. After additional incubation at 23° C. for 60 min, test articles were measured the fluorescence using Envision leader (Perkin Elmer, USA) [Laser as excitation light; […] as the first and the second emission filter]. Data was analyzed using XL Fit software.
# [2] = test system: H460; assay: Cellular H460 viability assay (CellTiter-Glo, 72 hours); format: cell-based; details: Homo sapiens, NCI-H460
# Procedure: (§3) All cell lines were routinely tested for mycoplasma.
# (§4) The effect of the CDK7 inhibitor to inhibit the growth of target cancer cells was evaluated through the 72 hours time period of viability assay. Briefly, the candidate cell line ware plated in 96 well plate at the following density of cells respectively. […] DMSO solvent without compound served as a control and final DMSO concentration less than 0.1%. After 72 hours of incubation at 37° C., 5% CO2 incubator, cells were analyzed for the viability using the CellTiter-Glo Luminescent Cell Viability Assay (Promega, Cat #G7570). All viability assays were performed in duplicate and Luminescence was read using an Envision (Perkin Elmer, USA). Data was analyzed using XLfit software.
# [3] = test system: MV4-11; assay: Cellular MV4-11 viability assay (CellTiter-Glo, 72 hours); format: cell-based; details: Homo sapiens
# Procedure: as §3, §4
# [4] = target: T2, CDK7/Cyclin H/MNAT1 (Homo sapiens, UniProt P50613); assay: Enzymatic assay for CDK7 (FRET based LANCE Ultra kinase assay); format: biochemical; details: for IC50: read-out: CDK7 enzymatic activity (IC50 range)
# T2 construct: purchased Invitrogen PR6749B
# T2 sequence (P50613 whole entry): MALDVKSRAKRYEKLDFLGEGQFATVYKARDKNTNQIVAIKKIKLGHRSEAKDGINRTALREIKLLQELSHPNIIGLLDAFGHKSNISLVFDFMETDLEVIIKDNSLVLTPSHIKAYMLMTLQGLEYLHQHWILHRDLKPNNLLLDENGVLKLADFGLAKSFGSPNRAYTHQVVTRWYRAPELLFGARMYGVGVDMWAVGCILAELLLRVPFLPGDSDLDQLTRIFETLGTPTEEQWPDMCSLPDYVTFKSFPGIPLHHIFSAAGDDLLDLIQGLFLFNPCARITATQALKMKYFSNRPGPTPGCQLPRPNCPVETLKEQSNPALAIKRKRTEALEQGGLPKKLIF
# T2 sequence (P51946 whole entry partner): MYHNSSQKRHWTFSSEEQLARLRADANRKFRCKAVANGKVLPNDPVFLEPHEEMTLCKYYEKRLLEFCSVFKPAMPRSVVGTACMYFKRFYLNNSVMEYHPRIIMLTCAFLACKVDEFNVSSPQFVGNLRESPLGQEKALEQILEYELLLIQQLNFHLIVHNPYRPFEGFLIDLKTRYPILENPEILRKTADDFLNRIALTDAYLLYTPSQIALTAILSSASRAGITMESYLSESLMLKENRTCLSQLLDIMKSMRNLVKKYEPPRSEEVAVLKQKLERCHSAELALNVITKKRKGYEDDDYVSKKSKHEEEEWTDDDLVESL
# T2 sequence (P51948 whole entry partner): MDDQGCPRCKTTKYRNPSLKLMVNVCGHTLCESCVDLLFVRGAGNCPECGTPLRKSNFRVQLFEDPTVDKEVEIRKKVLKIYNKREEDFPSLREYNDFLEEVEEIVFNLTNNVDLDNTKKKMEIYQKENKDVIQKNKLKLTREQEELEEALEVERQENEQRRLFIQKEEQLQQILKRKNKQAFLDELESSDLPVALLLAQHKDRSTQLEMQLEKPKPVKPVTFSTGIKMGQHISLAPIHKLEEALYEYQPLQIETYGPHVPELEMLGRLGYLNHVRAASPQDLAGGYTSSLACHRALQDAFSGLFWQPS
# Procedure: as §1
# Inhibition activity of the respective compound on CDK kinase under Km value of ATP was tested in FRET based The LANCE® Ultra kinase assay (Perkin Elmer), which uses a ULight™-labeled peptide substrate and an appropriate Europium-labeled anti-phospho-antibody. […] After 1 min centrifugation at 1000 rpm, Purified CDKs/Cyclin complex were added following concentrations respectively. […] Data was analyzed using XL Fit software.
# [5] = target: T3, CDK5/p25 (Homo sapiens, UniProt Q00535); assay: Enzymatic assay for CDK5 (FRET based LANCE Ultra kinase assay); format: biochemical; details: read-out: CDK5 enzymatic activity (IC50 range)
# T3 construct: purchased Invitrogen PR8543B
# T3 sequence (Q00535 whole entry): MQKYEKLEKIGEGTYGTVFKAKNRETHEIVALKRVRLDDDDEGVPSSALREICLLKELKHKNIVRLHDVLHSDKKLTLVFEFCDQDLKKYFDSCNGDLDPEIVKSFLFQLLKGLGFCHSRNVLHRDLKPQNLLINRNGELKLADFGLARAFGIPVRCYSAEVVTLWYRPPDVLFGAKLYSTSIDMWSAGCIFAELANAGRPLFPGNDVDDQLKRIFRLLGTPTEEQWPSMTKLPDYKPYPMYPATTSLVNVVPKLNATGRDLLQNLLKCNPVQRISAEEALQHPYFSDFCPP
# T3 sequence (Q15078 99-307 partner limits assumed): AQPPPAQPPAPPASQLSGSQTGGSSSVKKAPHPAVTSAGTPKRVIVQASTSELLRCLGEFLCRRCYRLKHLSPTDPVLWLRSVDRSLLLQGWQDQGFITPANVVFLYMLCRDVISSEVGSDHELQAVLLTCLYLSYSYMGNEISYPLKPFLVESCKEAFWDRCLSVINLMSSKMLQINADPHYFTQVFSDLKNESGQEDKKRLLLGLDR
# Procedure: as §1, §2
# [6] = target: T4, CDK2/Cyclin A (Homo sapiens, UniProt P24941); assay: Enzymatic assay for CDK2 (FRET based LANCE Ultra kinase assay); format: biochemical; details: read-out: CDK2 enzymatic activity (IC50 range)
# T4 construct: purchased Invitrogen PV6290
# Procedure: as §1, §2
# [7] = test system: HCT116; assay: Cellular HCT116 viability assay (CellTiter-Glo, 72 hours); format: cell-based; details: Homo sapiens, HCT-116
# Procedure: as §3, §4
# T1 sequence (P06493 whole entry): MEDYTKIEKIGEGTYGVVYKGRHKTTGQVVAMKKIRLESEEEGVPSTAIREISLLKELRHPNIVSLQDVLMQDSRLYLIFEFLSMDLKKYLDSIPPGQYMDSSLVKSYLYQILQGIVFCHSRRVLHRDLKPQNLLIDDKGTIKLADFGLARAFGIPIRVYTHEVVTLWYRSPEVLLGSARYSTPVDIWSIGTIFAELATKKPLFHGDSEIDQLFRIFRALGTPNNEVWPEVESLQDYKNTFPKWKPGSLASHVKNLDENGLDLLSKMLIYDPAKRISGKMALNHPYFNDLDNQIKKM
# T1 sequence (P14635 whole entry partner): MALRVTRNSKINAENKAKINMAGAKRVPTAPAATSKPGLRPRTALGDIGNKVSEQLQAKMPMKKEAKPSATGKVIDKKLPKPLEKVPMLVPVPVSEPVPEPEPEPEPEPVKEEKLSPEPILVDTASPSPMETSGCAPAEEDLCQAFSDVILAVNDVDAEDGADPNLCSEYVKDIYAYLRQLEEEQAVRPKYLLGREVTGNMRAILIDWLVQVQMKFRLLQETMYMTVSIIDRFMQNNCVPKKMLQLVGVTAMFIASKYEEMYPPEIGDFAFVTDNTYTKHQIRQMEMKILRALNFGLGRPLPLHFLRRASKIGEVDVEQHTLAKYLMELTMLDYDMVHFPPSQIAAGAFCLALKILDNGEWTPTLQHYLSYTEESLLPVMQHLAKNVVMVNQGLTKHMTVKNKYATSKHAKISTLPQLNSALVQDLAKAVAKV
SMILES,IC50 [1] [nM],IC50 [2] [nM],IC50 [3] [nM],CDK1/CDK7: Selectivity of CDK7 inhibition over CDK1 inhibition [4],CDK2/CDK7: Selectivity of CDK7 inhibition over CDK2 inhibition [4],CDK5/CDK7: Selectivity of CDK7 inhibition over CDK5 inhibition [4],IC50 [4] [nM],IC50 [5] [nM],IC50 [6] [nM],IC50 [7] [nM]
CC(C)c1cnn2c(NC(C)c3ccccc3-n3ccc(CO)n3)nc(N3CCC(N)CC3)nc12 (racemic) [Compound 220],> 1000,< 1000,< 1000,A (A=greater than 200 fold),A (A=greater than 200 fold),A (A=greater than 200 fold),< 100,> 1000,> 1000,< 1000
CC(C)c1cnn2c(NCc3cccc4ccncc34)nc(N3CCC(N)CC3)nc12 [Compound 31],100 to 1000,< 1000,–,"B (B=less than 200 fold, but greater than 20 fold)","B (B=less than 200 fold, but greater than 20 fold)",C (C=less than 20 fold),< 100,< 100,< 100,< 1000
CC(C)c1cnn2c(NCc3ccccc3-n3cccn3)nc(-c3cccc(N4CCNCC4)c3)nc12 [Compound 167],> 1000,< 1000,< 1000,A (A=greater than 200 fold),"B (B=less than 200 fold, but greater than 20 fold)","B (B=less than 200 fold, but greater than 20 fold)",< 100,100 to 1000,> 1000,–
Cc1ccc(-c2cc3ccccc3[nH]2)c(CNc2nc(N3CCC(N)CC3)nc3c(C(C)C)cnn23)c1 [Compound 190],> 1000,1000 to 10000,1000 to 10000,A (A=greater than 200 fold),A (A=greater than 200 fold),"B (B=less than 200 fold, but greater than 20 fold)",< 100,> 1000,> 1000,–
CC(C)c1cnn2c(NCc3ccccc3-n3cc4cc(O)ccc4n3)nc(N3CCC(N)CC3)nc12 [Compound 159],> 1000,–,< 1000,A (A=greater than 200 fold),"B (B=less than 200 fold, but greater than 20 fold)","B (B=less than 200 fold, but greater than 20 fold)",< 100,100 to 1000,100 to 1000,< 1000
CC(C)c1cnn2c(NCc3ccccc3-n3cccn3)nc(-c3cccc(C4CCNCC4)c3)nc12 [Compound 165],> 1000,< 1000,< 1000,A (A=greater than 200 fold),"B (B=less than 200 fold, but greater than 20 fold)","B (B=less than 200 fold, but greater than 20 fold)",< 100,100 to 1000,> 1000,–
Cc1ccc(CNc2nc(N3CCC(N)CC3)nc3c(C(C)C)cnn23)c(-c2cc3ccccc3[nH]2)c1 [Compound 191],100 to 1000,< 1000,< 1000,"B (B=less than 200 fold, but greater than 20 fold)","B (B=less than 200 fold, but greater than 20 fold)","B (B=less than 200 fold, but greater than 20 fold)",< 100,100 to 1000,100 to 1000,–
CC(C)c1cnn2c(NCc3ccccc3-n3cc4cc(NS(C)(=O)=O)ccc4n3)nc(N3CCC(N)CC3)nc12 [Compound 158],100 to 1000,–,< 1000,"B (B=less than 200 fold, but greater than 20 fold)","B (B=less than 200 fold, but greater than 20 fold)","B (B=less than 200 fold, but greater than 20 fold)",< 100,< 100,100 to 1000,< 1000
CCCNC(=O)Nc1ccccc1CNc1nc(N2CCC(N)CC2)nc2c(C(C)C)cnn12 [Compound 11],> 1000,< 1000,–,A (A=greater than 200 fold),"B (B=less than 200 fold, but greater than 20 fold)","B (B=less than 200 fold, but greater than 20 fold)",< 100,100 to 1000,100 to 1000,–
CC(C)c1cnn2c(NCc3ccccc3-n3cccn3)nc(Nc3cccc(OC4CCNC4)c3)nc12 (racemic) [Compound 164],> 1000,–,1000 to 10000,"B (B=less than 200 fold, but greater than 20 fold)","B (B=less than 200 fold, but greater than 20 fold)","B (B=less than 200 fold, but greater than 20 fold)",< 100,> 1000,> 1000,–
CC(C)c1cnn2c(NCc3ccccc3-n3cccn3)nc([C@H]3CC[C@H](N)CC3)nc12 [Compound 25],100 to 1000,< 1000,–,"B (B=less than 200 fold, but greater than 20 fold)",C (C=less than 20 fold),C (C=less than 20 fold),< 100,< 100,< 100,–
Cc1nc2c(CNc3nc(N4CCC(N)CC4)nc4c(C(C)C)cnn34)cccc2o1 [Compound 33],100 to 1000,< 1000,–,"B (B=less than 200 fold, but greater than 20 fold)","B (B=less than 200 fold, but greater than 20 fold)",C (C=less than 20 fold),< 100,< 100,100 to 1000,–
